In PubChem BioAssay AID192 (DTP/NCI, 2004):
Where “and” joins values, the source holds several entries; their conditions need not be identical. Identical values can stand only once. Inconclusive results and toxic doses are left out. The calls were made as follows: active = survival T/C of 150% or more; inactive = T/C below 125% in these data.

Test system: BDF1 mice, B16 melanoma ip, median survival T/C
Test: NCI In Vivo Anticancer Drug Screen. Data for tumor model B16 Melanoma (intraperitoneal) in B6D2F1 (BDF1) mice
Settings: endpoint: median survival time, higher = longer survival
Summary of the method: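 Transplantable tumor model; survival or tumor size measured; reported as T/C, treated over vehicle control.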

[1] = dose: 100.0 mg/kg/injection, schedule: Q01DX009 (ip), vehicle: saline with Tween-80
[2] = dose: 200.0 mg/kg/injection, schedule: Q01DX009 (ip), vehicle: saline with Tween-80
[3] = dose: 50.0 mg/kg/injection, schedule: Q01DX009 (ip), vehicle: saline with Tween-80
[4] = dose: 25.0 mg/kg/injection, schedule: Q01DX009 (ip), vehicle: Klucel (hydroxypropylcellulose) (HPC)
[5] = dose: 50.0 mg/kg/injection, schedule: Q01DX009 (ip), vehicle: Klucel (hydroxypropylcellulose) (HPC)
[6] = dose: 100.0 mg/kg/injection, schedule: Q01DX009 (ip), vehicle: Klucel (hydroxypropylcellulose) (HPC)
[7] = dose: 200.0 mg/kg/injection, schedule: Q01DX009 (ip), vehicle: Klucel (hydroxypropylcellulose) (HPC)
[8] = dose: 25.0 mg/kg/injection, schedule: Q01DX009 (ip), vehicle: saline
[9] = dose: 50.0 mg/kg/injection, schedule: Q01DX009 (ip), vehicle: saline

Measured: T/C

Cc1c([N+](=O)[O-])cc2c(c1[N+](=O)[O-])C(C)(C)CC2(C)C
inactive: [1] 95 % of control | [2] 86 % of control | dose: 400.0 mg/kg/injection, schedule: Q01DX009 (ip), vehicle: saline with Tween-80 90 % of control

CC(NC(=O)OC(C)(C)C)C(=O)ON1C(=O)CCC1=O (stereo unspecified)
inactive: [3] 102 % of control | [1] 92 % of control

CC(C)(c1ccccc1)c1ccc(O)cc1
inactive: dose: 37.5 mg/kg/injection, schedule: Q01DX009 (ip), vehicle: other 97 % of control | dose: 75.0 mg/kg/injection, schedule: Q01DX009 (ip), vehicle: other 100 % of control | dose: 150.0 mg/kg/injection, schedule: Q01DX009 (ip), vehicle: other 94 % of control | dose: 150.0 mg/kg/injection, schedule: Q04DX003 (ip), vehicle: saline + alcohol 90 % of control | dose: 300.0 mg/kg/injection, schedule: Q01DX009 (ip), vehicle: other 94 % of control | dose: 300.0 mg/kg/injection, schedule: Q04DX003 (ip), vehicle: saline + alcohol 104 % of control | dose: 600.0 mg/kg/injection, schedule: Q04DX003 (ip), vehicle: saline + alcohol 95 % of control

O=c1cc(-c2ccccc2)nc(Nc2nc3ccc([N+](=O)[O-])cc3[nH]2)[nH]1
inactive: [4] 102 % of control | [5] 90 % of control | [6] 98 % of control and 103 % of control

O=C(Cc1ccc2cc3c(cc2c1)OCO3)NCCc1ccc2c(c1)OCO2
inactive: [6] 105 % of control | [7] 94 % of control | dose: 400.0 mg/kg/injection, schedule: Q01DX009 (ip), vehicle: Klucel (hydroxypropylcellulose) (HPC) 91 % of control

CCOC(=O)CNC(=O)CCCCSc1ncnc2nc[nH]c12
inactive: dose: 20.0 mg/kg/injection, schedule: Q01DX009 (ip), vehicle: Klucel (hydroxypropylcellulose) (HPC) 88 % of control | dose: 40.0 mg/kg/injection, schedule: Q01DX009 (ip), vehicle: Klucel (hydroxypropylcellulose) (HPC) 91 % of control | dose: 80.0 mg/kg/injection, schedule: Q01DX009 (ip), vehicle: Klucel (hydroxypropylcellulose) (HPC) 89 % of control | dose: 160.0 mg/kg/injection, schedule: Q01DX009 (ip), vehicle: Klucel (hydroxypropylcellulose) (HPC) 89 % of control | dose: 320.0 mg/kg/injection, schedule: Q01DX009 (ip), vehicle: Klucel (hydroxypropylcellulose) (HPC) 87 % of control

OC(CC1(O)C(F)(F)C(F)(F)C1(F)F)c1ccccc1 (stereo unspecified)
inactive: [3] 107 % of control | [1] 110 % of control | [2] 94 % of control

CC(=N\O)/C(C)=N/O.CC(=N\O)/C(C)=N/O.[Fe].c1c[nH]cn1.c1c[nH]cn1
inactive: [6] 100 % of control | [7] 100 % of control

COC(=O)c1cc(C)c(Br)c(N)c1
inactive: dose: 37.5 mg/kg/injection, schedule: Q04DX003 (ip), vehicle: Klucel (hydroxypropylcellulose) (HPC) 97 % of control | dose: 75.0 mg/kg/injection, schedule: Q04DX003 (ip), vehicle: Klucel (hydroxypropylcellulose) (HPC) 92 % of control | dose: 150.0 mg/kg/injection, schedule: Q04DX003 (ip), vehicle: Klucel (hydroxypropylcellulose) (HPC) 94 % of control

COc1ccc(CN(CCOC(=O)c2ccc(OC)cc2)CCN(CCOC(=O)c2ccc(OC)cc2)Cc2ccc(OC)cc2)cc1
inactive: dose: 3.12 mg/kg/injection, schedule: Q01DX009 (ip), vehicle: other 100 % of control | dose: 6.25 mg/kg/injection, schedule: Q01DX009 (ip), vehicle: other 89 % of control | dose: 12.5 mg/kg/injection, schedule: Q01DX009 (ip), vehicle: other 90 % of control | dose: 25.0 mg/kg/injection, schedule: Q01DX009 (ip), vehicle: other 92 % of control

COc1ccc2c(=O)cc(-c3ccccc3)[nH]c2c1
inactive: dose: 12.5 mg/kg/injection, schedule: Q01DX009 (ip), vehicle: saline 114 % of control | [8] 117 % of control | [9] 120 % of control

O=NN(CCCl)C(=O)Nc1c[nH]c2ccccc12
active: [4] 153 % of control and 158 % of control | [5] 157 % of control and 158 % of control and 165 % of control | [6] 162 % of control and 174 % of control | [7] 174 % of control

CC(C)NNC(=O)C(N)CCC(=O)O (stereo unspecified)
inactive: [8] 97 % of control | [9] 104 % of control | dose: 100.0 mg/kg/injection, schedule: Q01DX009 (ip), vehicle: saline 95 % of control | dose: 200.0 mg/kg/injection, schedule: Q01DX009 (ip), vehicle: saline 100 % of control
